From patent US10562912B2 (C&C Research Laboratories, priority 2013, dated 2020) come the findings set out here.

Molecules are shown by their SMILES.

Common to all, as to format: cell-based
One assay concerns DU-145. Put plainly: Cell growth inhibition assay, prostate cancer cell line DU-145. The note with it: Homo sapiens, DU-145 prostate cancer cell line. Summed up:
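Viability by CellTiter-Glo luminescence after 72–96 h of compound dosing at 37° C. under 5% CO2; DU-145 and HCT116 seeded at 3,000 cells/well, SW626 at 5,000 cells/well.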

The test system of a further assay is HEL92.1.7. Kind of assay: Cell growth inhibition assay, blood cancer cell line HEL92.1.7. As to conditions: Homo sapiens, HEL 92.1.7, HEL92.1.7 blood cancer cell line. Summed up: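 Cells were seeded at 3,000/well (HCT116, DU-145) or 5,000/well (SW626 and the others) and exposed to serial compound dilutions for 72 to 96 h at 37 °C under 5% CO2. Viability was read as CellTiter-Glo luminescence against 0.1% DMSO and cell-free wells.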

The next assay concerns the target T1, STAT3 (Homo sapiens, UniProt P40763).
T1 construct: plasmid pSTAT3-TA-luc), which contains a stably operating STAT3 promoter; endogenous in cells
Kind of assay: STAT3 reporter gene assay (luciferase), LNCaP stable cell line (pSTAT3-TA-luc), IL-6 stimulation. Summed up: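 LNCaP cells stably carrying pSTAT3-TA-luc, in RPMI1640 with 3% DCC-FBS, were treated with compound and then stimulated with 10 ng/mL IL-6 for 24–48 h at 37 °C. Luciferase activity was measured in lysates. A parallel plate measured viability by CellTiter-Glo, with stimulated 0.1% DMSO wells as the positive control.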

The test system of the next assay is LNCaP. Put plainly: Cell growth inhibition assay, prostate cancer cell line LNCaP (medium with 10 ng/mL IL-6). The note with it: Homo sapiens, medium supplemented with 10 ng/mL of IL-6, 10,000 cells/well.

T1 sequence (P40763 whole entry): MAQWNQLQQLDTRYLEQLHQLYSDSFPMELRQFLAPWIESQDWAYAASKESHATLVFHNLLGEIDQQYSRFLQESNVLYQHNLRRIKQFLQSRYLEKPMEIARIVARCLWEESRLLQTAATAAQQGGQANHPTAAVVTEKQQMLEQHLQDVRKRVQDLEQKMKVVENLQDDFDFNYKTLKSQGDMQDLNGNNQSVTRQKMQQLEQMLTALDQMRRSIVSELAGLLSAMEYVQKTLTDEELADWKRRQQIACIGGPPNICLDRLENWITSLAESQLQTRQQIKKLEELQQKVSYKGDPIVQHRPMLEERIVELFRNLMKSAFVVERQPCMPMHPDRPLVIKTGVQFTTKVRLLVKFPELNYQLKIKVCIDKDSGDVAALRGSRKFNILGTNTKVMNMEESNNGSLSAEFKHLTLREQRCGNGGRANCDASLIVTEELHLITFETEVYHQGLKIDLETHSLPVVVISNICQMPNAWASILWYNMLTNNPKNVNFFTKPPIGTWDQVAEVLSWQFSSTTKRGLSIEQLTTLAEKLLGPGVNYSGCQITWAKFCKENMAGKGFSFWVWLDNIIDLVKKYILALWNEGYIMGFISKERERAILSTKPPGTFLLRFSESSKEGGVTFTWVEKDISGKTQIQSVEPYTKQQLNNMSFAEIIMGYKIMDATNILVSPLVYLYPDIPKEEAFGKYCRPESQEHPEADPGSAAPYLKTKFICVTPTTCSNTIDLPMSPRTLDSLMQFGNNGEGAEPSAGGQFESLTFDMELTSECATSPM

On to `CC(C)(c1cc(Cl)cc(NC(=O)c2cc3cc(NS(C)(=O)=O)ccc3s2)c1)n1ncccc1=O` [Example 190, N-(3-chloro-5-(2-(6-oxopyridazin-1(6H)-yl)propan-2-yl)phenyl)-5-(methylsulfonamido)benzo[b]thiophene-2-carboxamide], for which the IC50 with DU-145 was over 1.1 µM; in the assay with HEL92.1.7, over 1.1 µM; on STAT3, 2.37 µM; with LNCaP, over 1.1 µM.
Turning to `CC(C)Oc1cc(OC(F)(F)F)cc(C(C)(C)c2cc(Cl)cc(NC(=O)c3cc4cc(NC(=O)OC(C)(C)C)ccc4s3)c2)c1` [Example 194, tert-butyl (2-((3-chloro-5-(2-(3-isopropoxy-5-(trifluoromethoxy)phenyl)propan-2-yl)phenyl)carbamoyl)benzo[b]thiophen-5-yl)carbamate], the IC50 with DU-145 was over 1.1 µM; with HEL92.1.7 it was over 1.1 µM; against STAT3, over 10 µM; in the assay with LNCaP, over 1.1 µM.
In the case of `COCCS(=O)(=O)Nc1ccc2sc(C(=O)Nc3cc(Cl)cc(C(C)(C)c4cc(OC(C)C)cc(OC(F)(F)F)c4)c3)cc2c1` [Example 195, N-(3-chloro-5-(2-(3-isopropoxy-5-(trifluoromethoxy)phenyl)propan-2-yl)phenyl)-5-((2-methoxyethyl)sulfonamido)benzo[b]thiophene-2-carboxamide], the IC50 in the assay with DU-145 came out at 0.007 µM; with HEL92.1.7, 0.029 µM; against STAT3, 0.011 µM; in the assay on LNCaP it was 0.035 µM.
In the case of `CC(C)Oc1cc(OC(F)(F)F)cc(C(C)(C)c2cc(Cl)cc(NC(=O)c3cc4cc(NS(=O)(=O)CC5CCOC5)ccc4s3)c2)c1` (stereo not drawn) [Example 196, N-(3-chloro-5-(2-(3-isopropoxy-5-(trifluoromethoxy)phenyl)propan-2-yl)phenyl)-5-(((tetrahydrofuran-3-yl)methyl)sulfonamido)benzo[b]thiophene-2-carboxamide], the IC50 turned out to be 0.022 µM in the assay on DU-145, 0.12 µM with HEL92.1.7, 0.02 µM against STAT3 and 0.084 µM in the assay with LNCaP.
Regarding `Cc1noc(C)c1S(=O)(=O)Nc1ccc2sc(C(=O)Nc3cc(Cl)cc(C(C)(C)c4cc(OC(C)C)cc(OC(F)(F)F)c4)c3)cc2c1` [Example 199, N-(3-chloro-5-(2-(3-isopropoxy-5-(trifluoromethoxy)phenyl)propan-2-yl)phenyl)-5-((3,5-dimethylisoxazole)-4-sulfonamido)benzo[b]thiophene-2-carboxamide], the IC50 was 0.15 µM in the assay with DU-145, 0.68 µM in the assay on HEL92.1.7, 0.65 µM against STAT3 and 0.34 µM with LNCaP.
Taken in the same sequence, the figures for `CC(C)Oc1cc(OC(F)(F)F)cc(C(C)(C)c2cc(Cl)cc(NC(=O)c3cc4cc(NS(=O)(=O)c5ccn(C)n5)ccc4s3)c2)c1` [Example 200, N-(3-chloro-5-(2-(3-isopropoxy-5-(trifluoromethoxy)phenyl)propan-2-yl)phenyl)-5-((1-methyl-1H-pyrazole)-3-sulfonamido)benzo[b]thiophene-2-carboxamide] were 0.19 µM, 0.3 µM, 0.069 µM and 0.28 µM.
For the molecule `CC(C)Oc1cc(OC(F)(F)F)cc(C(C)(C)c2cc(Cl)cc(NC(=O)c3cc4cc(NS(=O)(=O)c5cnn(C)c5)ccc4s3)c2)c1` [Example 201, N-(3-chloro-5-(2-(3-isopropoxy-5-(trifluoromethoxy)phenyl)propan-2-yl)phenyl)-5-((1-methyl-1H-pyrazole)-4-sulfonamido)benzo[b]thiophene-2-carboxamide], the IC50 in the assay with DU-145 turned out to be 0.018 µM; in the assay on HEL92.1.7 it was 0.053 µM; against STAT3, 0.029 µM; in the assay with LNCaP it was 0.064 µM.
As for `CCS(=O)(=O)Nc1ccc2sc(C(=O)Nc3cc(Cl)cc(C(C)(C)c4cc(OC(C)C)cc(OC(F)(F)F)c4)c3)cc2c1` [Example 202, N-(3-chloro-5-(2-(3-isopropoxy-5-(trifluoromethoxy)phenyl)propan-2-yl)phenyl)-5-(ethylsulfonamido)benzo[b]thiophene-2-carboxamide], the IC50 stood at 0.007 µM in the assay with DU-145, 0.013 µM in the assay with HEL92.1.7, 0.007 µM against STAT3 and 0.014 µM in the assay with LNCaP.
Consider `CC(C)Oc1cc(OC(F)(F)F)cc(C(C)(C)c2cc(Cl)cc(NC(=O)c3cc4cc(NS(=O)(=O)C(C)C)ccc4s3)c2)c1` [Example 203, N-(3-chloro-5-(2-(3-isopropoxy-5-(trifluoromethoxy)phenyl)propan-2-yl)phenyl)-5-((1-methylethyl)sulfonamido)benzo[b]thiophene-2-carboxamide], for which the IC50 with DU-145 is 0.008 µM; in the assay on HEL92.1.7 it was 0.017 µM; against STAT3, 0.006 µM; in the assay on LNCaP it was 0.023 µM.
The like results for `CC(C)Oc1cc(OC(F)(F)F)cc(C(C)(C)c2cc(Cl)cc(NC(=O)c3cc4cc(NS(=O)(=O)C5CCOC5)ccc4s3)c2)c1` (stereo not drawn) [Example 204, N-(3-chloro-5-(2-(3-isopropoxy-5-(trifluoromethoxy)phenyl)propan-2-yl)phenyl)-5-((tetrahydrofuran)-3-sulfonamido)benzo[b]thiophene-2-carboxamide] were, in that order, 0.017 µM, 0.05 µM, 0.051 µM and 0.095 µM.
For the molecule `CC(C)Oc1cc(OC(F)(F)F)cc(C(C)(C)c2cc(Cl)cc(NC(=O)c3cc4cc(NS(=O)(=O)C5CCS(=O)(=O)CC5)ccc4s3)c2)c1` [Example 205, N-(3-chloro-5-(2-(3-isopropoxy-5-(trifluoromethoxy)phenyl)propan-2-yl)phenyl)-5-((1,1-dioxidotetrahydro-2H-thiopyran)-4-sulfonamido)benzo[b]thiophene-2-carboxamide], the IC50 in the assay on DU-145 is 0.063 µM; in the assay with HEL92.1.7, 0.58 µM; at STAT3, 0.3 µM; with LNCaP it was 0.31 µM.
With `CC(=O)N1CCC(S(=O)(=O)Nc2ccc3sc(C(=O)Nc4cc(Cl)cc(C(C)(C)c5cc(OC(C)C)cc(OC(F)(F)F)c5)c4)cc3c2)CC1` [Example 206, 5-((1-acetylpiperidine)-4-sulfonamido)-N-(3-chloro-5-(2-(3-isopropoxy-5-(trifluoromethoxy)phenyl)propan-2-yl)phenyl)benzo[b]thiophene-2-carboxamide], the IC50 turned out to be 0.051 µM in the assay with DU-145, 0.35 µM with HEL92.1.7, 0.19 µM at STAT3 and 0.19 µM in the assay with LNCaP.
For `C=CS(=O)(=O)Nc1ccc2sc(C(=O)Nc3cc(Cl)cc(C(C)(C)c4cc(OC(C)C)cc(OC(F)(F)F)c4)c3)cc2c1` [Example 207, N-(3-chloro-5-(2-(3-isopropoxy-5-(trifluoromethoxy)phenyl)propan-2-yl)phenyl)-5-(vinylsulfonamido)benzo[b]thiophene-2-carboxamide], the IC50 was over 1.1 µM in the assay on DU-145, over 1.1 µM in the assay with HEL92.1.7, 3 µM against STAT3 and over 1.1 µM in the assay on LNCaP.
Turning to `CC(C)Oc1cc(OC(F)(F)F)cc(C(C)(C)c2cc(Cl)cc(NC(=O)c3cc4cc(NS(=O)(=O)CCN(C)C)ccc4s3)c2)c1` [Example 208, N-(3-chloro-5-(2-(3-isopropoxy-5-(trifluoromethoxy)phenyl)propan-2-yl)phenyl)-5-((2-(dimethylamino)ethyl)sulfonamido)benzo[b]thiophene-2-carboxamide], the IC50 is 0.08 µM in the assay with DU-145, 0.33 µM in the assay with HEL92.1.7, 0.17 µM against STAT3 and 0.22 µM in the assay on LNCaP.
On to `CC(C)Oc1cc(OC(F)(F)F)cc(C(C)(C)c2cc(Cl)cc(NC(=O)c3cc4cc(NS(=O)(=O)CCN5CCOCC5)ccc4s3)c2)c1` [Example 209, N-(3-chloro-5-(2-(3-isopropoxy-5-(trifluoromethoxy)phenyl)propan-2-yl)phenyl)-5-((2-morpholinoethyl)sulfonamido)benzo[b]thiophene-2-carboxamide], for which the IC50 in the assay with DU-145 was found to be 0.027 µM; in the assay on HEL92.1.7 it was 0.099 µM; against STAT3, 0.043 µM; in the assay on LNCaP, 0.053 µM.
Regarding `CC(C)Oc1cc(OC(F)(F)F)cc(C(C)(C)c2cc(Cl)cc(NC(=O)c3cc4cc(NS(=O)(=O)CCN(C)O)ccc4s3)c2)c1` [Example 210, N-(3-chloro-5-(2-(3-isopropoxy-5-(trifluoromethoxy)phenyl)propan-2-yl)phenyl)-5-((2-(hydroxy(methyl)amino)ethyl)sulfonamido)benzo[b]thiophene-2-carboxamide], the IC50 amounted to 0.073 µM in the assay on DU-145, 0.57 µM with HEL92.1.7, 0.14 µM on STAT3 and 0.28 µM with LNCaP.
Turning to `CC(C)Oc1cc(OC(F)(F)F)cc(C(C)(C)c2cc(Cl)cc(NC(=O)c3cc4cc(N5CCCCS5(=O)=O)ccc4s3)c2)c1` [Example 211, N-(3-chloro-5-(2-(3-isopropoxy-5-(trifluoromethoxy)phenyl)propan-2-yl)phenyl)-5-(1,1-dioxido-1,2-thiazinan-2-yl)benzo[b]thiophene-2-carboxamide], the IC50 turned out to be 0.014 µM in the assay on DU-145, 0.066 µM with HEL92.1.7, 0.007 µM at STAT3 and 0.05 µM in the assay with LNCaP.
For `CC(C)Oc1cc(OC(F)(F)F)cc(C(C)(C)c2cc(Cl)cc(NC(=O)c3cc4cc(N5CCCS5(=O)=O)ccc4s3)c2)c1` [Example 212, N-(3-chloro-5-(2-(3-isopropoxy-5-(trifluoromethoxy)phenyl)propan-2-yl)phenyl)-5-(1,1-dioxidoisothiazolidin-2-yl)benzo[b]thiophene-2-carboxamide], the IC50 was found to be 0.022 µM in the assay with DU-145, 0.081 µM with HEL92.1.7, 0.01 µM against STAT3 and 0.075 µM with LNCaP.
